In patent US20230381774A1, “MICROFLUDIC LAB-ON-CHIP DEVICE, MATRIX, SMALL MOLECULES AND THREE-DIMENSIONAL SPHEROIDS FOR CELL REPROGRAMMING” (The Regents of the University of California, priority 2022, published 2023):
“Also recorded” adds a separate entry of the source.

Tests used:
Type in all cases: cell-based, mouse
[1] = test system: H3K4-specific histone methyltransferase (HMT); assay: H3K4 HMT activity assay on nuclear extracts of treated fibroblasts; settings: 10 μM blebbistatin or 5 μM PF573228, 2 hours, vs DMSO
Description: (§1) Nuclear protein extractions were isolated from 5×10^5 fibroblasts treated with vehicle control (DMSO), 10 μM blebbistatin or 5 μM PF573228 for 2 hours using a nuclear extraction kit (EpiGentek, OP-0002), in accordance with the manufacturer's instructions. HAT, HDAC, H3K4 HMT, H3K4 HDM and DNMT activity were measured using the HAT activity/inhibition assay (EpiGentek, P-4003-048), HDAC activity/inhibition assay (EpiGentek, P-4034-096), Histone methyltransferase (H3K4 specific) activity/inhibition assay (EpiGentek, P-3002-1), Histone Demethylase (H3K4 specific) activity/inhibition assay (EpiGentek, P-3074-48), and DNMT activity/inhibition assay (EpiGentek, P-3009-048), respectively. Per the manufacturer's instructions, 20 μg of nuclear extract was added into the assay wells and incubated at 37° C. for 90 minutes. After adding the color developer solution, the absorbance was measured using a plate reader (Infinite […], 30050303) at 450 nm for all the assays with the exception of the Histone Demethylase (H3K4 specific) activity/inhibition assay where we measured the fluorescence using a fluorescence microplate reader at 530 EX/590 EM nm.

[2] = test system: histone deacetylase (HDAC); assay: HDAC activity assay on nuclear extracts of treated fibroblasts; settings: 10 μM blebbistatin or 5 μM PF573228, 2 hours, vs DMSO
Description: as §1

5-methylcytosine (5-mC) = assay: Global DNA methylation (5-mC) assay; settings: non-transduced fibroblasts, 24 hours, vs control
Description: DNA was isolated from non-transduced fibroblasts treated with vehicle control (DMSO), 10 μM blebbistatin and 5 μM PF573228, respectively, for 24 hours using the PureLink Genomic DNA mini kit (Invitrogen) according to the manufacturer's instructions. To detect global DNA methylation (5-mC) levels in the samples, we utilized the MethylFlash Global DNA Methylation (5-mC) ELISA Easy kit (Epigentek) according to the manufacturer's protocol. 100 ng of DNA sample was utilized per reaction and after adding the color developer solution, the absorbance was measured using a plate reader (Infinite […], 30050303) at 450 nm.

iN cells = assay: Immunostaining of mature neuronal markers in iN cells; settings: iN cells derived in presence of inhibitor
Description: (§2) For immunostaining, cells were fixed with 4% paraformaldehyde (Electron Microscopy Sciences), permeabilized with 0.5% Triton-X-100 (Sigma), and blocked with 5% donkey serum (Jackson Immunoresearch) in phosphate buffered saline (PBS). For actin-cytoskeleton staining, samples were incubated with fluorescein isothiocyanate-conjugated phalloidin (Invitrogen) for 1 hour. Primary antibodies were incubated for 1 hour at room temperature or overnight at 4° C., followed by 1-hour incubation with Alexa 488 and/or Alexa 546-labeled secondary antibodies (Molecular Probes). Nuclei were stained with 4,6-diamino-2-phenylindole (DAPI) (Invitrogen).

calponin and αSMA = assay: Mesenchymal marker expression (immunostaining, qRT-PCR, Western blot)
Description: as §2
RNA was isolated from samples using Trizol® (Ambion) according to the manufacturer's instructions. For cDNA synthesis, 500 ng of RNA was reverse transcribed using Maxima First Strand cDNA Synthesis Kit (ThermoFisher Scientific). Template DNA was amplified using Maxima SYBR Green/Fluorescein qPCR Master Mix (ThermoFisher Scientific) on a CFX qPCR machine (Bio-Rad). qRT-PCR data were analyzed using CFX Manager 3.1 (Bio-Rad) and gene expression levels were normalized to 18S.
Fibroblasts were lysed and collected in Laemmli buffer ([…] Tris-HCl, 10% glycerol, 2% SDS, 5% 2-mercaptoethanol, 0.002% bromophenol blue) containing RIPA buffer (50 mM Tris-HCl, 150 mM NaCl, 1% Triton-X-100, 0.1% SDS, 10 mM NaF, 0.5% sodium deoxycholate) along with protease inhibitors (PMSF, Na3VO4 and Leupeptin) on ice. Protein lysates were centrifuged to pellet cell debris, and the supernatant was collected and used in further analysis. Protein samples were run using SDS-PAGE and transferred to polyvinylidene fluoride (PVDF) membranes. Membranes were blocked in 3% nonfat milk and incubated with primary antibodies overnight. Primary antibodies include pFAK, FAK, αSMA, Calponin, pERK, ERK, and GAPDH. Membranes were washed with Tris-Buffered Saline+0.05% Tween-20 and incubated with HRP-conjugated IgG secondary antibodies (Santa Cruz Biotechnologies) for one hour. Protein bands were visualized using Western Lightning™ Plus—Enhanced Chemiluminscence Substrate (Perkin Elmer Life & Analytical Sciences) and imaged on a ChemiDoc XRS system (Bio-Rad).

[3] = test system: H3K4-specific histone demethylase (HDM); assay: H3K4 HDM activity assay on nuclear extracts of treated fibroblasts; settings: 10 μM blebbistatin or 5 μM PF573228, 2 hours, vs DMSO
Description: as §1

SMILES | H3K4-specific HMT activity [1] | HDAC activity [2] | DNA methylation (5-mC) (5-methylcytosine (5-mC)) | mature neuronal marker expression of derived iN cells (iN cells) | calponin- and αSMA-positive cells (calponin and αSMA; non-transduced fibroblasts) | calponin and αSMA expression, gene and protein level (calponin and αSMA; non-transduced fibroblasts, day 3) | Eln and DCN expression (calponin and αSMA; qRT-PCR, non- and BAM-transduced fibroblasts) | H3K4-specific HDM activity [3] | calponin and αSMA expression in BAM-transduced fibroblasts (calponin and αSMA; treated for 2 days)
Cc1ccc2c(c1)C(=O)C1(O)CCN(c3ccccc3)C1=N2 (centres unmarked) [blebbistatin] | increased | reducing | a decrease in the abundance of DNA methylation marker, 5-methylcytosine (5-mC) | expressed NeuN, microtubule-associated protein 2 (MAP2), and synapsin | less calponin and α-smooth muscle actin (SMA)-positive cells | decreased at the gene and protein level by day 3 | downregulated the expression of other mesenchymal and fibroblast-associated genes, Eln and DCN | reduced | 
CS(=O)(=O)c1cccc(CNc2nc(Nc3ccc4c(c3)CCC(=O)N4)ncc2C(F)(F)F)c1 [PF573228] | differences | differences | lower levels of DNA methylation | expressed neuronal markers, including NeuN, MAP2, and synapsin; also recorded: displaying a typical neuronal morphology and co-expressing mature neuronal markers, NeuN, MAP2 and synapsin |  |  |  | differences | decreased
